Experimental data from US20250163010A1, “PROCESSES FOR THE PREPARATION OF N-(1-METHYLCYCLOPROPYL)-2-(3-PYRIDINYL)-2H-INDAZOLE-4-CARBOXAMIDE AND INTERMEDIATES THEREOF” (FMC CORPORATION, priority 2022, published 2025).

What was measured:
[1] = Form A and Form B interconversion (competitive) slurries; assay type: physicochemical
Description: Relative thermodynamic stabilities of anhydrous/non-solvated Forms A and B were studied at 2-8° C., room temperature (RT) and at 71-72° C. via interconversion (competitive) slurries. In these slurries, a given solvent system was pre-saturated with compound 092 (Form A+minor Form B) at the stated temperature, and a portion of the liquid phase was filtered into a mixture of solids containing relatively equal amounts of Form A and Form B. Interconversion slurries at 2-8° C. and RT were allowed to stir for 22 days, while slurries at 71-72° C. stirred for shorter duration (2-4 days). […] The results are reported in table 13 below where: liquid phase for each slurry was pre-saturated using as-received Form A+minor Form B; solvent ratios are v/v; water activity values were calculated using UNIFAC calculator at RT; and times and temperatures are approximate.

[2] = Stable polymorph form screen by slurry experiments; assay type: physicochemical; conditions: between 2° C. and 73° C.; conclusion from slurries
Description: Slurry experiments were conducted to identify the stable form at various conditions. In these experiments, saturated solutions in various solvents containing excess undissolved solids (starting with Form A+minor Form B) were stirred for extended durations. Slurries at room temperature (RT) and 2-8° C. were typically conducted for approximately 2 weeks, while slurries at 72-73° C. were stirred for a shorter duration (1 day) to minimize the potential for decomposition. […] The results are shown in the table 12 where the time and temperatures are approximate.

CC1(NC(=O)c2cccc3nn(-c4cccnc4)cc23)CC1 [Form A + Form B, N-(1-methylcyclopropyl)-2-(3-pyridinyl)-2H-indazole 4-carboxamide]
Final form (XRPD Result) ([1]; competitive slurry in EtOH, 71-72° C., 2 d, relatively equal amounts of Form A and Form B): Form A
Final form (XRPD Result) ([1]; competitive slurry in EtOH, RT, 22 d, relatively equal amounts of Form A and Form B): Form A
Final form (XRPD Result) ([1]; competitive slurry in NMP/water 80:20 (aw 0.39), 2-8° C., 22 d, relatively equal amounts of Form A and Form B): Form A
Final form (XRPD Result) ([1]; competitive slurry in NMP/water 80:20 (aw 0.39), 71-72° C., 2 d, analyzed damp): Form A
Final form (XRPD Result) ([1]; competitive slurry in NMP/water 80:20 (aw 0.39), RT, 22 d, relatively equal amounts of Form A and Form B): Form A

CC1(NC(=O)c2cccc3nn(-c4cccnc4)cc23)CC1 [Form A, N-(1-methylcyclopropyl)-2-(3-pyridinyl)-2H-indazole 4-carboxamide]
Relative stability of polymorph forms [2]: more stable than Form B
Relative thermodynamic stability of polymorph forms ([1]; between 2° C. and 72° C., conclusion from competitive slurries): thermodynamically stable form
